Nine compounds from patent publication US20260234543A1, “MICROORGANISMS AND METHODS FOR REDUCING BY-PRODUCTS” (Genomatica, Inc., priority 2023, published 2026) can be followed below.

For experiment [1], the system named is acyl-CoA synthetase (ACS) (SEQ ID NO: 1). Briefly: ACS activity on substrates of various chain lengths (enzymatic coupled assay for detection of AMP). In kind it is biochemical, Ruegeria pomeroyi. The settings on record: 5 mM substrate, pH 7.5; for Activity: 250 μM CoA, 1 mM ATP. How it is done:
Purified acyl-CoA synthetase (ACS) (GenBank Accession No. WP_011046428.1; see, SEQ ID NO: 1) was assayed for activity on a range of substrates of various chain lengths. The substrates tested, which were conjugate bases (or carboxylates) of C2-C8 carboxylic acids, included acetate (C2), acetoacetate (C4), butyrate (C4), (R)- and(S)-3-hydroxybutryate ((R)-3-HB and(S)-3HB; C4), succinate (C4), hexanoate (C6), adipate (C6), 6-aminocaproic acid (6ACA; C6), and octanoate (C8).
An enzymatic coupled assay for detection of AMP, which is a co-product of the synthetase/ligase enzymatic reaction catalyzed by the ACS/CoA ligase, was used. The coupling enzymes used were adenylate kinase, pyruvate dehydrogenase, and lactate dehydrogenase, which catalyze reactions resulting in the oxidation of 2 NADH molecules per molecule of AMP produced by the ACS/CoA ligase enzymatic reaction. The coupling reagents for AMP detection were phospho (enol) pyruvate and NADH. The ACS/CoA ligase enzymatic reactions were followed by monitoring NADH oxidation over time, by measuring absorbance at 340 nm.
Reactions were set up in 96-well absorbance plates, in aqueous buffer at pH 7.5, and 5 mM of conjugate base substrate, 250 μM of Coenzyme A (CoA), 1 mM of ATP, 5 mM of MgCl2, 1 mM of phospho (enol) pyruvate, 500 μM of NADH, and non-rate limiting concentrations of the three coupling enzymes (adenylate kinase, pyruvate dehydrogenase, and lactate dehydrogenase), were added for each reaction. The ACS enzyme was added at a concentration that was appropriate for measuring a linear change on absorbance over up to 20 minutes. For example, 100 nM of ACS was added for the reactions with butyrate or 3-HB as the substrates. Negative control reactions omitted the substrate (conjugate base), the CoA, or the ACS enzyme.

For experiment [2], the system named is CAR enzyme (SEQ ID NO: 3). Briefly: In vitro CAR activity for conversion of 3HB to 3HB-Ald (NADPH absorbance at 340 nm). In kind it is biochemical, Mycobacterium avium. The settings on record: for CAR Activity: 1 μM CAR, 0.5 mM NADPH, 1 mM ATP. The procedure:
In vitro CAR activity for the conversion of 3HB to 3HB—Ald was determined by direct measurement of the decrease in NADPH concentration, by measuring NADPH absorbance at 340 nm over time. The reactions were carried out in 96-well absorbance plates, and varying concentrations of 3HB substrate (see, TABLE 8 below), 0.5 mM of NADPH, 1 mM of ATP, 5 mM of MgCl2, and 1 μM of CAR enzyme (see, SEQ ID NO: 3) were added. A negative control reaction was included, in which addition of 3HB substrate was omitted. CAR activity was measured as μM of NADPH oxidized per minute per μM of CAR enzyme.

The compound `C[C@@H](O)CC(=O)O` [(R)-3HB, (3R)-hydroxybutyrate] gave an Activity in experiment [1] of 322 μM AMP/min/μM ACS.

`C[C@H](O)CC(=O)O` [(S)-3HB, (3S)-hydroxybutyrate] showed an Activity in experiment [1] of 222 μM AMP/min/μM ACS.

Consider `CC(=O)O` [Acetate], for which, in experiment [1], the Activity stood at 38 μM AMP/min/μM ACS and the “ACS activity on substrate (in words)” value was “exhibits activity”.

Consider `CC(=O)CC(=O)O` [Acetoacetate], for which, in experiment [1], the Activity came to 34 μM AMP/min/μM ACS and the “ACS activity on substrate (in words)” value is listed as “exhibits activity”.

`O=C(O)CCCCC(=O)O` [Adipate, adipate]: the Activity result in experiment [1] is listed as “No activity”.

On to `CCCCCCCC(=O)O` [Octanoate, octanoate], for which, in experiment [1], the Activity result is on record as “No activity”.

As for `CC(O)CC(=O)O` (stereo not drawn) [Strain 3HB, 3-hydroxybutyrate], in experiment [1], the “ACS activity on substrate (in words)” value is listed as “has activity on both the (R) and(S) forms”. Also, the “CAR activity as a function of 3HB concentration (in words)” value in experiment [2] (0.78125-50 mM 3HB) is recorded as “CAR activity increases as the concentration of 3HB substrate increases”. Moreover, the “CAR Activity” value is 0.47 μM NADPH oxidized/min/μM CAR in experiment [2] (3HB substrate 0.78125 mM); 1.30 μM NADPH oxidized/min/μM CAR in experiment [2] (3HB substrate 1.5625 mM); 2.61 μM NADPH oxidized/min/μM CAR in experiment [2] (3HB substrate 3.125 mM); 4.24 μM NADPH oxidized/min/μM CAR in experiment [2] (3HB substrate 6.25 mM); 5.87 μM NADPH oxidized/min/μM CAR in experiment [2] (3HB substrate 12.5 mM); 8.81 μM NADPH oxidized/min/μM CAR in experiment [2] (3HB substrate 25 mM). Moreover, the “CAR Activity” value in experiment [2] (3HB substrate 50 mM) is 10.25 μM NADPH oxidized/min/μM CAR.

Take `NCCCCCC(=O)O` [Strain 6ACA, 6-aminocaproic acid]: in experiment [1], the Activity stood at 0.015 μM AMP/min/μM ACS and the “ACS activity on substrate (in words)” value is given as “exhibits activity”.

Regarding `O=C(O)CCC(=O)O` [Succinate, succinate], in experiment [1], the Activity is 0.06 μM AMP/min/μM ACS and the “ACS activity on substrate (in words)” value is recorded as “exhibits activity”.
